Laboratory results published in ChEMBL document CHEMBL1141452, “Advances in development of dopaminergic aporphinoids” (J Med Chem, 2007).
pIC50, pKi: −log10 of the molar value.

How the values were obtained:
[1] = molecular target: D(2) dopamine receptor (Rattus norvegicus, UniProt P61169); assay: Displacement of [3H]raclopride from rat dopamine D2 receptor
[2] = molecular target: D(1A) dopamine receptor (Rattus norvegicus, UniProt P18901); assay: Displacement of [3H]SCH-23390 from rat dopamine D1 receptor
Chain of D(1A) dopamine receptor (P18901 whole entry): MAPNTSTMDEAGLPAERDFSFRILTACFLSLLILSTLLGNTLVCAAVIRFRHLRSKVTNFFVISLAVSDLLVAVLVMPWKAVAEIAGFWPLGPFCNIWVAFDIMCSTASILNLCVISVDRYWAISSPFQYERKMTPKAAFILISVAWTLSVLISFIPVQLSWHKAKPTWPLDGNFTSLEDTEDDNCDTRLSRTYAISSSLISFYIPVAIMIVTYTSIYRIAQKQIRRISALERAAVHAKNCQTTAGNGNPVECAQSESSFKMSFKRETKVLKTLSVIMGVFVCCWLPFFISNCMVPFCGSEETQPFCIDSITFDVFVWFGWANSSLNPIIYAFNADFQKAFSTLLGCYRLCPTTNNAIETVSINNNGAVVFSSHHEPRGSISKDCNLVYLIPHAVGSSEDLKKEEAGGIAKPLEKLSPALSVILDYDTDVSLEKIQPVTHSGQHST

[3] = molecular target: T1, 5-hydroxytryptamine receptor 1A (Rattus norvegicus, UniProt P19327); assay: Displacement of [3H]8-OH-DPAT from rat 5HT1A receptor
T1 sequence (P19327 whole entry): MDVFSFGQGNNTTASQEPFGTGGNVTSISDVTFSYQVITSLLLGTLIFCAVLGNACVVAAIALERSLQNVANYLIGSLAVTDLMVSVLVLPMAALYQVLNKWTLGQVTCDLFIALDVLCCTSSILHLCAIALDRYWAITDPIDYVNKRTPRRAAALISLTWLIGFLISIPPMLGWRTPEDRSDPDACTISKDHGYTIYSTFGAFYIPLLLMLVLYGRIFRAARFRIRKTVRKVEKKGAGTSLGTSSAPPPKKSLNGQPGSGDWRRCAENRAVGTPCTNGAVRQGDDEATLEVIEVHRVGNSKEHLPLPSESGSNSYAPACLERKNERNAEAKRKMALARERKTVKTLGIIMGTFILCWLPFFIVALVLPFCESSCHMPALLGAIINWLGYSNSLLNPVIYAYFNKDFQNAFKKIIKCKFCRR

[4] = molecular target: 5-hydroxytryptamine receptor 7 (Rattus norvegicus) (UniProt P32305); assay: Displacement of [3H]5-HT from rat 5-HT7 receptor
Chain of 5-hydroxytryptamine receptor 7 (Rattus norvegicus) (P32305 whole entry, looked up): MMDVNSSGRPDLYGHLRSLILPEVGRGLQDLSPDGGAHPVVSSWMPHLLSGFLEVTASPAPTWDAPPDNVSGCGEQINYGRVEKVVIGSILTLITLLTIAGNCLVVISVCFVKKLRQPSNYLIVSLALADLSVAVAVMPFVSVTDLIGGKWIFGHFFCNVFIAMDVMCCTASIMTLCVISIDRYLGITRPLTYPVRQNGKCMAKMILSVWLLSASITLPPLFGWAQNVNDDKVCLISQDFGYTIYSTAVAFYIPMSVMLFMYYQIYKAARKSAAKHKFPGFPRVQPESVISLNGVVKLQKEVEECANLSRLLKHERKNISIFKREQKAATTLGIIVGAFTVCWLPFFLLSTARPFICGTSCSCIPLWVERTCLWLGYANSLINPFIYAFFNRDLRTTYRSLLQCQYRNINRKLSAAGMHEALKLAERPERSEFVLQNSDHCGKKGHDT

[5] = molecular target: Sodium-dependent dopamine transporter (Rattus norvegicus, UniProt P23977); assay: Displacement of [3H]DA from rat DAT
Chain of Sodium-dependent dopamine transporter (P23977 whole entry): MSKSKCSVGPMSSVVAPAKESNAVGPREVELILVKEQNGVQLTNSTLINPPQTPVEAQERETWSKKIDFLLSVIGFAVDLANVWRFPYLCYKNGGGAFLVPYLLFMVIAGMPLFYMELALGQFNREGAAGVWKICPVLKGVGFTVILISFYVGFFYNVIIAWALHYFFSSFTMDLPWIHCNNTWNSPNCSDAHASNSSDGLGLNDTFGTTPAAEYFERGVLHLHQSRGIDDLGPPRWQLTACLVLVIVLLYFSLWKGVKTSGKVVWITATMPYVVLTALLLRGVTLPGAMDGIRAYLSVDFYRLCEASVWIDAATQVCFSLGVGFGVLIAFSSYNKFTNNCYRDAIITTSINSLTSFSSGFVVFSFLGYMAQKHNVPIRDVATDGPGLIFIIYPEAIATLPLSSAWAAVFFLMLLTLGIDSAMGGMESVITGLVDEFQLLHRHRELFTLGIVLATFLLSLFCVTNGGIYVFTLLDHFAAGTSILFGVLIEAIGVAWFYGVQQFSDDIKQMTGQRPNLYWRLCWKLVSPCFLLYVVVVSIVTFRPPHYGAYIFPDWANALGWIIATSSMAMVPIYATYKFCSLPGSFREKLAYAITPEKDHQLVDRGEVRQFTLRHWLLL

[6] = Inhibition of rat midbrain dopaminergic neuron firing; format: functional; settings: read-out: ID50 (the source's name)

Chain of D(2) dopamine receptor (P61169 whole entry): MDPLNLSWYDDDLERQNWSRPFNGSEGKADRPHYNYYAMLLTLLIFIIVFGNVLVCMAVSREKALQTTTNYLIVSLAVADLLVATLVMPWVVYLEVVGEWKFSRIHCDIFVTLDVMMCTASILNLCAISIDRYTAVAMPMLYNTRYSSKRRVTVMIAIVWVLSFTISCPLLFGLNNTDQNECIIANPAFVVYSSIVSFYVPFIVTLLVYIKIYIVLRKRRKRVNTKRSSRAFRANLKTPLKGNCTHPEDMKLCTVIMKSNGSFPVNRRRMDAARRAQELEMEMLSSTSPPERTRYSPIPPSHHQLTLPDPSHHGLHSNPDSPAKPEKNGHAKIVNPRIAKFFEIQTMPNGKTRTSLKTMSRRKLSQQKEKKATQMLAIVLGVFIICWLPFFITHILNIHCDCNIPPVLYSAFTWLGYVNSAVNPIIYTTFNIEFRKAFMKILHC

| Structure (SMILES) | pKi [1] | pKi [2] | other results |
| --- | --- | --- | --- |
| Cc1ccc2c(c1O)-c1cccc3c1[C@@H](C2)NCC3 | < 5.00 | < 4.70 |  |
| CCc1cccc2c1-c1cccc3c1[C@@H](C2)N(C)CC3 | 7.10 |  |  |
| CCCN1CCc2cccc3c2[C@H]1Cc1ccc(C)c(O)c1-3 | 6.60 | 5.70 |  |
| CN1CCc2ccc3c(=O)oc4cccc5c4c3c2[C@H]1C5 | 6.57 |  | pKi [3]: 5.70; pKi [4]: 5.82 |
| CN1CCc2ccc3oc(=O)c4cccc5c4c3c2[C@H]1C5 | 6.27 |  | pKi [3]: 5.94; pKi [4]: 6.55 |
| CCN1CCc2cccc3c2C1Cc1cc(O)ccc1O3 (stereo unspecified) | < 5.00 |  |  |
| CCCN1CCc2cc(O)cc3c2C1Cc1ccccc1O3 (stereo unspecified) | < 5.00 | < 5.00 |  |
| CN1CCc2cc(O)cc3c2C1Cc1ccccc1O3 (stereo unspecified) | 6.57 | 5.52 |  |
| CN1CCc2ccc3c(=O)[nH]c4cccc5c4c3c2[C@H]1C5 | 5.21 |  | pKi [3]: 6.43; pKi [4]: 6.47 |
| CCN1CCc2cc(O)cc3c2C1Cc1ccccc1C3 (stereo unspecified) | 4.82 | < 4.70 |  |
| Oc1cc2c3c(c1)Cc1ccccc1CC3NCC2 (stereo unspecified) | 4.70 | 5.43 |  |
| CCN1CCc2cc(OC)cc3c2C1Cc1ccccc1C3 (stereo unspecified) | 5.01 | 5.18 |  |
| CCCN1CCc2cc(OC)cc3c2C1Cc1ccccc1C3 (stereo unspecified) | 4.85 | 4.94 |  |
| CN1CCc2cc(O)c(O)c3c2C1Cc1ccccc1C3 (stereo unspecified) | 4.82 | 5.21 |  |
| CCN1CCc2cc(O)c(O)c3c2C1Cc1ccccc1C3 (stereo unspecified) | 4.80 | 5.08 |  |
| Oc1cc2c3c(c1O)Cc1ccccc1CC3NCC2 (stereo unspecified) | 5.10 | 4.97 |  |
| COc1cc2c3c(c1OC)Cc1ccccc1CC3N(Cc1ccccc1)CC2 (stereo unspecified) | 5.31 | < 4.22 |  |
| COc1cc2c3c(c1OC)Cc1ccccc1CC3NCC2 (stereo unspecified) | 4.89 | 5.37 |  |
| CCCN1CCc2cccc3c2[C@H]1Cc1cccc(OC(C)=O)c1-3 |  | < 5.00 |  |
| COc1cc2c(cc1O)C[C@H]1c3c(c(I)c(O)c(OC)c3-2)CCN1C | 7.17 | 8.70 |  |
| CCCCCCCCCCCCCCCCCCCCCC(=O)Oc1cccc2c1-c1cccc3c1[C@@H](C2)N(CCC)CC3 | 6.74 | < 5.00 |  |
| COc1c(O)c2c3c(c1OC)CCN(C)C3Cc1ccccc1-2 (stereo unspecified) |  |  | pIC50 [5]: 4.40; pIC50 [1]: 5.55; pIC50 [2]: 4.76 |
| COc1cccc2c1-c1c3c(cc4c1C(C2)N(C)CC4)OCO3 (stereo unspecified) |  |  | pIC50 [5]: 4.49; pIC50 [1]: < 4.00; pIC50 [2]: < 4.00 |
| CCCN1CCc2cc(SC)cc3c2[C@H]1Cc1ccc(O)c(O)c1-3 | 8.43 |  |  |
| CCCN1CCc2cc(F)cc3c2[C@H]1Cc1cccc(OC=O)c1-3 | 7.41 | 6.10 |  |
| CN1CCc2ccc3c4c2[C@H]1Cc1cccc(c1-4)[C@H]3O | 7.62 |  | pKi [4]: 7.85 |

| Structure (SMILES) | pKi [1] | pKi [2] | other results |
| --- | --- | --- | --- |
| C[C@H]1c2cccc3c2-c2c1ccc1c2[C@@H](C3)N(C)CC1 | 7.41 |  | pKi [3]: 7.51; pKi [4]: 8.22 |
| CC(=O)N[C@H]1c2cccc3c2-c2c1ccc1c2[C@@H](C3)N(C)CC1 | 5.10 |  | pKi [3]: 6.14; pKi [4]: 5.88 |
| CN1CCc2ccc3c4c2[C@H]1Cc1cccc(c1-4)[C@@H]3N |  |  | pKi [3]: 6.44; pKi [4]: 7.74 |
| CN1CCc2ccc3c4c2[C@H]1Cc1cccc(c1-4)[C@@]3(C)O | 6.74 |  | pKi [3]: 6.51; pKi [4]: 7.55 |
| CN1CCc2ccc3c4c2[C@H]1Cc1cccc(c1-4)[C@H]3N | 6.59 |  | pKi [3]: 6.85; pKi [4]: 7.89 |
| CO[C@@]1(C)c2cccc3c2-c2c1ccc1c2[C@@H](C3)N(C)CC1 | 7.15 |  | pKi [3]: 7.77; pKi [4]: 8.96 |
| CO[C@]1(C)c2cccc3c2-c2c1ccc1c2[C@@H](C3)N(C)CC1 | 8.15 |  | pKi [3]: 7.77; pKi [4]: 8.96 |
| CC(=O)N[C@@H]1c2cccc3c2-c2c1ccc1c2[C@@H](C3)N(C)CC1 | 5.44 |  | pKi [3]: 6.70; pKi [4]: 6.27 |
| C[C@@H]1c2cccc3c2-c2c1ccc1c2[C@@H](C3)N(C)CC1 | 7.72 |  | pKi [3]: 8.29; pKi [4]: 8.48 |
| CN1CCc2ccc3c4c2[C@H]1Cc1cccc(c1-4)[C@@H]3O | 6.68 |  | pKi [4]: 7.00 |
| CCCN1CCc2cc(O)cc3c2[C@H]1Cc1ccc(O)c(O)c1-3 |  |  | pIC50 [1]: 10.15 |
| Oc1cccc2c1-c1cccc3c1[C@@H](C2)NCC3 | 6.00 |  |  |
| CCCN1CCc2cccc3c2C1Cc1cc(O)ccc1O3 (stereo unspecified) | < 5.00 | < 5.00 |  |
| COc1cc2c(cc1OC)-c1c(OC)c(OC)c(I)c3c1[C@H](C2)N(C)CC3 | 5.35 | 5.68 |  |
| COc1cc2c(cc1OC)-c1c(OC)c(O)c(Br)c3c1[C@H](C2)N(C)CC3 | 6.21 | 7.82 |  |
| COc1cc2c(cc1OC)-c1c(OC)c(O)c(I)c3c1[C@H](C2)N(C)CC3 | 6.08 | 8.22 |  |
| CCCN1CCc2cc(O)cc3c2C1Cc1ccccc1C3 (stereo unspecified) | 4.40 | 4.52 |  |
| COc1cc2c3c(c1)Cc1ccccc1CC3N(C)CC2 (stereo unspecified) | 5.09 | 5.07 |  |
| COc1cc2c3c(c1)Cc1ccccc1CC3NCC2 (stereo unspecified) | 4.72 | 5.20 |  |
| COc1cc2c(cc1OC)-c1c(OC)c(OC)c(Br)c3c1[C@H](C2)N(C)CC3 | 5.62 | 6.28 |  |
| CCCCC(=O)Oc1cccc2c1-c1cccc3c1[C@@H](C2)N(CCC)CC3 | 7.47 | < 4.70 |  |
| CN1CCc2ccc3c4c2[C@@]1(C)Cc1cccc(c1-4)C3 | 7.08 |  | pKi [3]: 7.39; pKi [4]: 8.15 |
| CCCN1CCc2cc(O)c(O)c3c2C1Cc1ccccc1C3 (stereo unspecified) | 5.17 | 4.65 |  |
| CN1CCc2cc(-c3ccc(O)cc3)cc3c2[C@H]1Cc1cccc(O)c1-3 | 8.42 | 6.77 |  |
| COc1cc2c3c(c1OC)Cc1ccccc1CC3N(C)CC2 (stereo unspecified) | < 4.70 | 5.14 |  |
| CCCN1CCc2cc(OC)c(OC)c3c2C1Cc1ccccc1C3 (stereo unspecified) | 4.85 | < 4.15 |  |

| Structure (SMILES) | pKi [1] | pKi [2] | other results |
| --- | --- | --- | --- |
| CN1CCc2cc(O)cc3c2C1Cc1ccccc1C3 (stereo unspecified) | 5.05 | 5.19 |  |
| CN1CCc2ccc3c4c2[C@H]1Cc1cccc(c1-4)[C@]3(C)O | 7.59 |  | pKi [4]: 8.37 |
| CCCN1CCc2cc(OC)cc3c2[C@H]1Cc1ccc(O)c(O)c1-3 |  |  | pIC50 [1]: 7.99 |
| Cc1ccc2c(c1O)-c1cccc3c1[C@@H](C2)N(C)CC3 | 5.97 |  |  |
| Cc1cccc(C#N)c1-c1cccc2c1-c1cccc3c1[C@@H](C2)N(C)CC3 (stereo in doubt; 57) | 5.60 |  | pKi [3]: 3.10; pKi [4]: 7.68 |
| Cc1cccc(C#N)c1-c1cccc2c1-c1cccc3c1[C@@H](C2)N(C)CC3 (stereo in doubt; 58) |  |  | pKi [4]: 8.42 |
| Cc1cccc(O)c1-c1cccc2c1-c1cccc3c1[C@@H](C2)N(C)CC3 (stereo in doubt; 59) | < 4.00 |  | pKi [3]: 3.52; pKi [4]: 8.37 |
| Cc1cccc(O)c1-c1cccc2c1-c1cccc3c1[C@@H](C2)N(C)CC3 (stereo in doubt; 60) | < 4.00 |  | pKi [3]: 4.31; pKi [4]: 7.64 |
| COc1cc2c(cc1O)C[C@H]1c3c(c(Br)c(O)c(OC)c3-2)CCN1C [3-BROMOBOLDINE] | 6.13 | 7.31 |  |
| CN1CCc2cccc3c2[C@@H]1Cc1ccc(O)c(O)c1-3 [(S)APOMORPHINE] |  |  | ED50 [6]: 8.4 µmol/kg |
| Oc1ccc2c(c1)C[C@H]1NCCc3cc4c(c-2c31)OCO4 [ANOLOBINE] |  |  | pIC50 [1]: 4.82; pIC50 [2]: 4.44 |
| c1ccc2c(c1)C[C@H]1NCCc3cc4c(c-2c31)OCO4 [ANONAINE] |  |  | pIC50 [1]: 4.72; pIC50 [2]: 4.17 |
| COc1cc2c(cc1O)C[C@H]1c3c(ccc(O)c3O2)CCN1C [BREOGANINE] |  |  | pIC50 [1]: 6.70; pIC50 [2]: 7.00 |
| COc1cc2c(cc1O)Oc1c(O)ccc3c1[C@H](C2)N(C)CC3 [CELTISINE] |  |  | pIC50 [1]: 7.52; pIC50 [2]: 7.22 |
| COc1ccc2c(c1O)Oc1c(O)ccc3c1[C@H](C2)N(C)CC3 [CLAVICULINE] |  |  | pIC50 [5]: < 4.00; pIC50 [1]: 5.82; pIC50 [2]: 6.00 |
| COc1cc2c(cc1OC)Oc1c(O)ccc3c1[C@H](C2)N(C)CC3 [CULARIDINE] |  |  | pIC50 [1]: 6.52; pIC50 [2]: 6.10 |
| COc1c(O)c2c3c(c1OC)CCN[C@@H]3Cc1ccccc1-2 [ISOPILINE] |  |  | pIC50 [1]: 4.52; pIC50 [2]: 5.01 |
| O=C1c2ccccc2-c2c3c(cc4ccnc1c24)OCO3 [LIRIODENINE] |  |  | pIC50 [1]: 4.23; pIC50 [2]: 4.12 |
| COc1c(O)c2c3c(nccc3c1OC)C(C)(C)c1cc(O)ccc1-2 [MELOSMINE] |  |  | pIC50 [5]: 4.61; pIC50 [1]: 4.10; pIC50 [2]: 4.90 |
| COc1cc2c(cc1O)C[C@@H]1NCCc3cc(O)c(OC)c-2c31 [NORBOLDINE] |  |  | pIC50 [1]: 5.17; pIC50 [2]: 5.60 |
| COc1c2c3c(c4c1OCO4)-c1ccccc1C[C@H]3NCC2 [NORSTEPHALAGINE] |  |  | pIC50 [1]: 4.57; pIC50 [2]: 5.32 |
| COc1cc2c(cc1OC)-c1c(OC)c(O)cc3c1[C@H](C2)N(C)CC3 [PREDICENTRINE] | 6.12 | 6.62 |  |
| COc1ccc2c(c1O)Oc1c(OC)ccc3c1[C@H](C2)N(C)CC3 [SARCOCAPNIDINE] |  |  | pIC50 [1]: 5.70; pIC50 [2]: 4.30 |
| COc1cc2c3c(c1OC)-c1c(ccc(O)c1O)CC3N(C)CC2 (stereo unspecified) [SUAVEOLINE] |  |  | pIC50 [5]: < 4.00; pIC50 [2]: 4.20 |
